# Results reported in US20080242688A1, “Method 741” (ASTRAZENECA AB, priority 2007, published 2008).
# Values joined by “and” are separate entries in the source; they are usually repeats but may differ in a detail not shown here. Equal values may be shown once.
# Columns and labels:
# [1] = biological target: T1, human recombinant 5-HT3A/B receptors (Homo sapiens, UniProt O95264+P46098); assay: Functional assays at recombinant human receptors; assay type: biochemical; conditions: recombinant human receptors in vitro
# T1 construct: expressed in transfected cells
# [2] = Single oral dose pharmacokinetics in healthy human volunteers; assay type: in vivo; set-up: AUC/dose: unit not given beside the values; conditions: for Cmax / Tmax / AUC / AUC(0-t) / half-life: human, plasma; for Cmax / AUC / AUC(0-t) / half-life / Cmax/Dose / AUC/dose / CL/F: geometric mean; for Tmax: median
# Protocol: Total oral doses of AZD0328 in the range 0.025-0.68 mg produced mean plasma concentrations of 0.6-15 nM, consistent with the range of plasma concentrations found to be associated with improved performance in the spatial delayed response test in monkeys. Total oral doses of AZD0328 in the range 0.005-2 mg produced mean plasma concentrations of 0.17-43.9 nM, within the range of plasma concentrations found to be associated with improved performance in rodent models.
# [3] = biological target: T2, mouse recombinant α7 receptor (Mus musculus, UniProt P49582); assay: Whole cell current, oocytes; assay type: cell-based; conditions: oocyte
# T2 construct: expressed in transfected cells; host or cells: Xenopus oocytes
# Text: (§1) In membranes prepared either from cultured, human recombinant α7 receptor-expressing, human embryonic kidney cells α7-HEK) or from rat brain hippocampus, AZD0328 competed with binding of an iodinated form of the high-affinity, selective α7 receptor antagonist snake toxin, [^125I]-α-bungarotoxin (BTX) (Table 1). In Xenopus oocytes injected with human, recombinant α7 receptor mRNA, AZD0328 activates whole cell currents (Table 2). […] In acutely dissociated rat hippocampal interneurons, AZD0328 elicits rapidly activated, desensitizing whole-cell current (Table 1), consistent with the known properties of rat neuronal α7 receptors. […] AZD0328 modulates synaptic function, consistent with the well-known role of α7 receptors as heteroreceptor modulators of glutamatergic and GABAergic synaptic function.
# [4] = biological target: T3, rat recombinant α7 receptor (Rattus norvegicus, UniProt Q05941); assay: Whole cell current, oocytes; assay type: cell-based; conditions: oocyte
# T3 construct: expressed in transfected cells; host or cells: Xenopus oocytes
# Text: as §1
# [5] = Multiple dose PK/TK, minipig; assay type: in vivo; conditions: capsules fasted; for AUC / Cmax / Tmax: both sexes, Gottingen, minipig, in vivo, po
# Text: (§2) This section provides a summary of the pharmacokinetic and metabolism properties of AZD0328 derived from in vivo studies. […] The derived PK/TK parameters from these studies are presented in Table 4 for single dose studies (DMR4, 0619LR, 20030191PCR, DMO16, DMB10, DMW12, 50190, 0190DD and 03.330/1), and are presented in Table 5 multiple dose PK/TK studies (DMR4, 0612AR, DMB15, 50190, 0190DD and 0295AD).
# [6] = Single dose PK/TK, ferret; conditions: in vivo
# Text: as §2
# Single dose PK/TK, rat = assay type: in vivo; conditions: for AUC / Cmax / Tmax: in vivo
# Text: as §2
# [7] = 73.1 mg/kg, minipig 2F+2M, 50190, 73.1 mg/kg (338 μmol/kg), day 1
# [8] = 73.1 mg/kg, minipig 2F+2M, 50190, 73.1 mg/kg (338 μmol/kg), day 7
# [9] = 422 mg/kg, minipig 2F+2M, 50190, 422 mg/kg (1951 μmol/kg), day 7
# [10] = male, ferret 4M, DMO16, single oral 10 mg/kg (46 μmol/kg)
# [11] = both sexes, rat 1M+1F, DMR4, single oral 2.16 mg/kg (10 μmol/kg)
# [12] = female, rat 2F, 0619LR, single oral 149 mg/kg (690 μmol/kg)
# [13] = male, rat 3M, 0619LR, single oral 201 mg/kg (930 μmol/kg)
# [14] = male, rat 4M, 20030191PCR, single oral 1.08 mg/kg (5 μmol/kg)
# [15] = male, rat 4M, 20030191PCR, single oral 32.4 mg/kg (150 μmol/kg)
# [16] = male, rat 4M, 20030191PCR, single oral 54.1 mg/kg (250 μmol/kg)
# [17] = male, rat 4M, 20030191PCR, single oral 86.5 mg/kg (400 μmol/kg)
# T2 sequence (P49582 23-502): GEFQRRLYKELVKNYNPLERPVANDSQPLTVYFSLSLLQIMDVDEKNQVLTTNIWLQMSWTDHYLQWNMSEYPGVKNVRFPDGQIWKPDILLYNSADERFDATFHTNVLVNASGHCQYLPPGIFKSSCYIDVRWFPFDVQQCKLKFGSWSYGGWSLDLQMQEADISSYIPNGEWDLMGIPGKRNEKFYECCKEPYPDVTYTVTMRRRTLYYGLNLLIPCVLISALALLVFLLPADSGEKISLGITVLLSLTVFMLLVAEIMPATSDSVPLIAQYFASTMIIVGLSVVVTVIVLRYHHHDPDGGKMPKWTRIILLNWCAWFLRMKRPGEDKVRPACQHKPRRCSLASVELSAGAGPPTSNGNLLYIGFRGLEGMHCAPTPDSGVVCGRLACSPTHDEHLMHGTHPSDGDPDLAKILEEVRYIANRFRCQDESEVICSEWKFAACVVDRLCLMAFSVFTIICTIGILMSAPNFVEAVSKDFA
# T3 sequence (Q05941 23-502): as the sequence (P49582 23-502) above, with T402A counted along it
# T1 sequence (P46098 24-478): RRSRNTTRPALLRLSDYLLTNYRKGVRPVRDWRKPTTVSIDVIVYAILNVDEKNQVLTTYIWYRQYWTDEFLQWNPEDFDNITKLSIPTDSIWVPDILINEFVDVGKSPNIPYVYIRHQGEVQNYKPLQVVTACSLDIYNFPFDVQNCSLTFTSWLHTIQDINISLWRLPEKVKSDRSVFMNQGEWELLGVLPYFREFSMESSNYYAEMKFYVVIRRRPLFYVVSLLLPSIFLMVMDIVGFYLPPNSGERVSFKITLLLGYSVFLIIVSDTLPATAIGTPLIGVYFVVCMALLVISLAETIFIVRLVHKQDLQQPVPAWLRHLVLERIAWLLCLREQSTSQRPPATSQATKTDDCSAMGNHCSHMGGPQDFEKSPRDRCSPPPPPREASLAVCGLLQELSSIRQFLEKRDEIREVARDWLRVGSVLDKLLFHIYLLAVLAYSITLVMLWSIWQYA
# T1 sequence (O95264 22-441): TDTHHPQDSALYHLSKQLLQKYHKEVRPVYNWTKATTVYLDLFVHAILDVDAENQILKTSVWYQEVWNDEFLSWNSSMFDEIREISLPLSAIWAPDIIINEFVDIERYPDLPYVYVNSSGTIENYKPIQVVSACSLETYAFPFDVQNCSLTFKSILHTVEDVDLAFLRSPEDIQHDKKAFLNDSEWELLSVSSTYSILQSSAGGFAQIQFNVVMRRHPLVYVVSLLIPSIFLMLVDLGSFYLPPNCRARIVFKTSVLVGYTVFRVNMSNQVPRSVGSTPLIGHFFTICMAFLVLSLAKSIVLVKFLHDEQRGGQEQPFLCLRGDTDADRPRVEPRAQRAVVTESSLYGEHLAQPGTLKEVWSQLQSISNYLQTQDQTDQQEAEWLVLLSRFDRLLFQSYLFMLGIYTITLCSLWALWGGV
structure (smiles),measurement,setting,value
"c1cnc2c(c1)C[C@@]1(CN3CCC1CC3)O2 [AZD0328, (R)-Spiro[1-azabicyclo[2.2.2]octane-3,2′(3′H)-furo[2,3-b]pyridine]]",functional potency at α7 versus 5-HT3A/B receptors,[1],equipotent
same,Cmax,[2]; single oral dose 0.005 mg,0.17 nM
same,Tmax,[2]; single oral dose 0.005 mg,0.8 h
same,AUC,[2]; single oral dose 0.025 mg,0.0061 µM·h
same,AUC(0-t),[2]; single oral dose 0.025 mg,0.0046 µM·h
same,Cmax,[2]; single oral dose 0.025 mg,0.6 nM
same,half-life,[2]; single oral dose 0.025 mg,6.3 h
same,Tmax,[2]; single oral dose 0.025 mg,1.3 h
same,AUC,[2]; single oral dose 0.075 mg,0.0169 µM·h
same,AUC(0-t),[2]; single oral dose 0.075 mg,0.0156 µM·h
same,Cmax,[2]; single oral dose 0.075 mg,2.1 nM
same,half-life,[2]; single oral dose 0.075 mg,5.9 h
same,Tmax,[2]; single oral dose 0.075 mg,1.5 h
same,AUC,[2]; single oral dose 0.23 mg,0.0652 µM·h
same,AUC(0-t),[2]; single oral dose 0.23 mg,0.0588 µM·h
same,Cmax,[2]; single oral dose 0.23 mg,6.4 nM
same,half-life,[2]; single oral dose 0.23 mg,6.7 h
same,Tmax,[2]; single oral dose 0.23 mg,1.5 h
same,AUC,[2]; single oral dose 0.68 mg,0.144 µM·h
same,AUC(0-t),[2]; single oral dose 0.68 mg,0.133 µM·h
same,Cmax,[2]; single oral dose 0.68 mg,15 nM
same,half-life,[2]; single oral dose 0.68 mg,6 h
same,Tmax,[2]; single oral dose 0.68 mg,2.2 h
same,AUC,[2]; single oral dose 1.35 mg,0.333 µM·h
same,AUC(0-t),[2]; single oral dose 1.35 mg,0.3 µM·h
same,Cmax,[2]; single oral dose 1.35 mg,31 nM
same,half-life,[2]; single oral dose 1.35 mg,6.9 h
same,Tmax,[2]; single oral dose 1.35 mg,3.2 h
same,AUC,[2]; single oral dose 2 mg,0.421 µM·h
same,AUC(0-t),[2]; single oral dose 2 mg,0.395 µM·h
same,Cmax,[2]; single oral dose 2 mg,43.9 nM
same,half-life,[2]; single oral dose 2 mg,5.6 h
same,Tmax,[2]; single oral dose 2 mg,2.5 h
same,Cmax/Dose,[2]; single oral dose 0.005 mg,0.007
same,AUC/dose,[2]; single oral dose 0.025 mg,0.053
same,CL/F,[2]; single oral dose 0.025 mg,19.0 L/h
same,Cmax/Dose,[2]; single oral dose 0.025 mg,0.006
same,AUC/dose,[2]; single oral dose 0.075 mg,0.049
same,CL/F,[2]; single oral dose 0.075 mg,20.5 L/h
same,Cmax/Dose,[2]; single oral dose 0.075 mg,0.006
same,AUC/dose,[2]; single oral dose 0.23 mg,0.061
same,CL/F,[2]; single oral dose 0.23 mg,16.3 L/h
same,Cmax/Dose,[2]; single oral dose 0.23 mg,0.006
same,AUC/dose,[2]; single oral dose 0.68 mg,0.046
same,CL/F,[2]; single oral dose 0.68 mg,21.9 L/h
same,Cmax/Dose,[2]; single oral dose 0.68 mg,0.005
same,AUC/dose,[2]; single oral dose 1.35 mg,0.054
same,CL/F,[2]; single oral dose 1.35 mg,18.7 L/h
same,Cmax/Dose,[2]; single oral dose 1.35 mg,0.005
same,AUC/dose,[2]; single oral dose 2 mg,0.046
same,CL/F,[2]; single oral dose 2 mg,22.0 L/h
same,Cmax/Dose,[2]; single oral dose 2 mg,0.005
same,mean plasma concentrations,[2]; total oral doses 0.005-2 mg,0.17 to 43.9 nM
same,mean plasma concentrations,[2]; total oral doses 0.025-0.68 mg,0.6 to 15 nM
same,EC50,[3]; mouse recombinant α7,1 µM
same,Emax,"[3]; mouse recombinant α7, 10 μM, read-out: Maximum response, whole cell current",83%
same,EC50,[4]; rat recombinant α7,1.1 µM
same,Emax,"[4]; rat recombinant α7, 10 μM, read-out: Maximum response, whole cell current",87%
same,AUC,[5]; [7],3140 ng·h/mL and 14.5 µM·h
same,Cmax,[5]; [7],379 ng/mL and 1.75 µM
same,Tmax,[5]; [7],2 to 6 h
same,AUC,[5]; [8],4610 ng·h/mL and 21.3 µM·h
same,Cmax,[5]; [8],794 ng/mL and 3.67 µM
same,Tmax,[5]; [8],0.5 to 4 h
same,AUC,[5]; [9],25700 ng·h/mL to 27700 ng·h/mL and 119 µM·h to 128 µM·h
same,Cmax,[5]; [9],1420 ng/mL to 1570 ng/mL and 6.57 µM to 7.24 µM
same,Tmax,[5]; [9],12 h
same,AUC/dose,"[5]; minipig 2F+2M, 50190, 73.1 mg/kg (338 μmol/kg), day 1",0.0429 ± 0.0275
same,AUC/dose,"[5]; minipig 2F+2M, 50190, 73.1 mg/kg (338 μmol/kg), day 7",0.0630 ± 0.0288
same,AUC/dose,"[5]; minipig 2F+2M, 50190, 422 mg/kg (1951 μmol/kg), day 7",0.0610-0.0656
same,half-life,"[6]; ferret, read-out: elimination half-life",< 5 h
same,AUC,[6]; [10],4000 ng·h/mL and 18.3 µM·h
same,Cmax,[6]; [10],590 ng/mL and 2.73 µM
same,Tmax,[6]; [10],0.25 to 1 h
same,half-life,"[6]; male, ferret 4M, DMO16, single oral 10 mg/kg (46 μmol/kg), read-out: T½ (converted)",3.98 ± 1.66 h
same,AUC,"Single dose PK/TK, rat; [11]",699 ng·h/mL to 861 ng·h/mL and 3.23 µM·h to 3.98 µM·h
same,Cmax,"Single dose PK/TK, rat; [11]",251 ng/mL to 344 ng/mL and 1.16 µM to 1.59 µM
same,Tmax,"Single dose PK/TK, rat; [11]",0.5 to 1 h
same,AUC,"Single dose PK/TK, rat; [12]",76600 ng·h/mL and 354 µM·h
same,Cmax,"Single dose PK/TK, rat; [12]",4740 ng/mL to 11600 ng/mL and 21.9 µM
same,AUC,"Single dose PK/TK, rat; [13]",49800 ng·h/mL and 230 µM·h
same,Cmax,"Single dose PK/TK, rat; [13]",15.9 µM and 3440 ng/mL
same,AUC,"Single dose PK/TK, rat; [14]",441 ng·h/mL and 2.04 µM·h
same,Cmax,"Single dose PK/TK, rat; [14]",99.9 ng/mL and 462 nM
same,Tmax,"Single dose PK/TK, rat; [14]",1 h
same,AUC,"Single dose PK/TK, rat; [15]",26600 ng·h/mL and 123 µM·h
same,Cmax,"Single dose PK/TK, rat; [15]",2570 ng/mL and 11.9 µM
same,Tmax,"Single dose PK/TK, rat; [15]",1 h
same,AUC,"Single dose PK/TK, rat; [16]",37900 ng·h/mL and 175 µM·h
same,Cmax,"Single dose PK/TK, rat; [16]",4500 ng/mL and 20.8 µM
same,Tmax,"Single dose PK/TK, rat; [16]",1 h
same,AUC,"Single dose PK/TK, rat; [17]",90000 ng·h/mL and 416 µM·h
same,Cmax,"Single dose PK/TK, rat; [17]",6750 ng/mL and 31.2 µM
same,Tmax,"Single dose PK/TK, rat; [17]",1 h
same,F,"Single dose PK/TK, rat; rat 1M+1F, DMR4, oral 2.16 mg/kg vs iv 1.08 mg/kg",78-84%
same,plasma concentrations,"Single dose PK/TK, rat; rat, 1 mg per kg (minimum effective dose in fimbria fornix model)",290 to 1400 nM
same,estimated plasma concentrations,"Single dose PK/TK, rat; rats, extended to mice, 0.001-0.1 mg per kg",0.29 to 100 nM
